# Reference: patent publication US20120004304A1, “BILE SALT ADJUVANT FOR ANIMALS FOR IMPROVING FAT UTILIZATION EFFICIENCY IN THE BODIES OF ANIMALS, AND ANIMAL FEED COMPRISING SAME” (KIMIN INC., priority 2009, published 2012)
# Legend:
# [1] = Fat digestion percentage and ME with SSL in animal feed; type: in vivo; conditions: 0.05% by weight of SSL in animal feed
# Text: The use of SSL enables improvement in digestion and absorption efficiency of fats, growth promotion, improvement of qualities, and an increase in production yield. From the results of preferred experimental examples, it can be seen that, when 0.05% by weight of SSL is used, fat digestion percentage is increased to about 5 to 10% and ME is increased to about 100 kcal/kg.
# [2] = Measurement of serum biochemical index; set-up: species or system ICR rats; conditions: rat, in vivo
# Protocol: Feed for animal tests purchased from Shin Chon Feed Co., Ltd, were prepared and various additives were added thereto to obtain a molded animal feed with a predetermined size.
# 4-week old male ICR rats with a weight of […] were obtained from the laboratory animal center of Seoul National University, were divided into five groups (n=12) and maintained at a temperature of 23±2° C. and a variety of specific animal feeds were administered thereto. At this time, animals of each group were treated with the following chemicals: (percentage (%) means % by weight) • Control Group: animal feed+soybean oil 5% • Experimental Group: animal feed+soybean oil 5%+SSL 0.1% (HLB 20) • Comparative Example 1: animal feed+soybean oil 5%+lecithin 0.1% (HLB 4) • Comparative Example 2: animal feed+soybean oil 5%+glycerin monocaprate 0.1% (HLB 7) • Comparative Example 3: animal feed+soybean oil 5%+POE (20) sorbitan monolaurate 0.1% (HLB 16)
# At 15 hours after the final weight of the test animals was measured (25 days), blood was collected from supraorbital […] blood vessel plexus of the rats using a capillary tube, serum was separated, and the following biochemical indexes were measured using a kit. […]
# [3] = Fat emulsifying capacity test; type: physicochemical; conditions: 75% water, 24.3% fat, 0.7% emulsifier (3% of fat), stirred
# Protocol: In order to confirm emulsifying capacity of sodiumstearoyl-2-lactylate(hereinafter, referred to as “SSL”) of the present invention, 75% water, 24.3% fat and 0.7% SSL (3% of the amount of fat used) were added and stirred. POE (20)-glyceride, mono-glyceride and lecithin were used as comparative examples.
Compound,ME increase [1],serum GPT and GOT versus control [2],emulsifying capacity (appearance after stirring) [3]
"CCCCCCCCCCCCCCCCCC(=O)OC(C)C(=O)OC(C)C(=O)[O-].[Na+] (centres unmarked) [SSL, sodium stearoyl-2-lactylate]",about 100 kcal/kg,considerable improvement in serum GPT and GOT,homogeneous dispersion
POE (20)-glyceride,–,–,layer separation
mono-glyceride,–,–,no emulsification
